Experimental data reported in the Deep4Chem optical property database.
One block for each compound: values may come before it.

Experiment: solvent given as SMILES

SMILES: Cn1c(/C=C/c2ccc(/C=C/c3nc4ccccc4[nH]3)cc2)[n+](C)c2ccccc21
absorption maximum (in C1CCOC1): 363 nm | absorption maximum (in CC#N): 377 nm | absorption maximum (in CC(C)=O): 386 nm | absorption maximum (in CN(C)C=O): 389 nm | absorption maximum (in CO): 391 nm | absorption maximum (in CS(C)=O): 392 nm | absorption maximum (in O): 376 nm

SMILES: O=[N+]([O-])c1ccc(/C2=C3N=C(C(c4ccccc4)=C/3c3ccccc3)/C(c3ccc([N+](=O)[O-])cc3)=c3\[nH]/c(c(-c4ccccc4)c3-c3ccccc3)=C(/c3ccc([N+](=O)[O-])cc3)C3=N/C(=C(/c4ccc([N+](=O)[O-])cc4)c4[nH]c2c(-c2ccccc2)c4-c2ccccc2)C(c2ccccc2)=C3c2ccccc2)cc1
absorption maximum (in ClCCl): 711 nm

SMILES: CCCCC(CC)CN1C(=O)c2cccc3c(C#Cc4ccc(N(c5ccccc5)c5ccccc5)cc4)ccc(c23)C1=O (stereo not drawn)
absorption maximum (in C1CCCCC1): 422 nm | absorption maximum (in C1CCOC1): 434 nm | absorption maximum (in CC#N): 433 nm | absorption maximum (in Cc1ccccc1): 438 nm | absorption maximum (in ClC(Cl)Cl): 450 nm

SMILES: CCCCN1C(=O)c2cccc3c([O-])c(/C=C/c4sc5ccccc5[n+]4CC)cc(c23)C1=O
absorption maximum (in C1CCOC1): 586.75 nm | absorption maximum (in CC#N): 564.61 nm | absorption maximum (in CC(C)=O): 572.49 nm | absorption maximum (in CCO): 555.68 nm | absorption maximum (in CO): 545.83 nm | absorption maximum (in CS(C)=O): 566.81 nm | absorption maximum (in Cc1ccccc1): 607.26 nm | absorption maximum (in ClC(Cl)Cl): 589.53 nm | absorption maximum (in ClCCl): 584.78 nm | absorption maximum (in O): 489.49 nm

SMILES: O=[N+]([O-])c1ccc(S(=O)(=O)Nc2ccc(C#Cc3ccc4ccc5ccc(C#Cc6ccc(NS(=O)(=O)c7ccc([N+](=O)[O-])cc7[N+](=O)[O-])cc6)c6ccc3c4c56)cc2)c([N+](=O)[O-])c1
absorption maximum (in CO): 402 nm

SMILES: C(=C1c2ccccc2-c2ccccc21)c1ccc(C=C2c3ccccc3-c3ccccc32)cc1
absorption maximum (in C1CCOC1): 365 nm

SMILES: N#C/C(=C\c1cc(/C=C(\C#N)c2ccc(C(F)(F)F)cc2)c(-c2ccc(N(c3ccccc3)c3ccccc3)cc2)cc1-c1ccc(N(c2ccccc2)c2ccccc2)cc1)c1ccc(C(F)(F)F)cc1
absorption maximum (in C1CCCCC1): 405 nm | absorption maximum (in C1CCOC1): 402 nm | absorption maximum (in CCCCCC): 402 nm | absorption maximum (in CCOC(C)=O): 397 nm | absorption maximum (in Cc1ccccc1): 408 nm | absorption maximum (in ClC(Cl)Cl): 407 nm | absorption maximum (in ClCCl): 405 nm

SMILES: CSc1sc(C(=O)c2ccccc2)c2nn[nH]c(=O)c12
absorption maximum (in C1CCOC1): 396.5 nm | absorption maximum (in CC#N): 396 nm | absorption maximum (in CCO): 400 nm | absorption maximum (in CN(C)C=O): 409 nm | absorption maximum (in CO): 400 nm | absorption maximum (in CS(C)=O): 405.5 nm

SMILES: F[B-]1(F)OC(c2ccccc2)=Nc2sc(-c3ccccc3)n[n+]21
absorption maximum (in C1CCOC1): 332 nm | absorption maximum (in CC#N): 330 nm | absorption maximum (in CCO): 328 nm | absorption maximum (in CCOC(C)=O): 331 nm | absorption maximum (in Cc1ccccc1): 337 nm | absorption maximum (in ClC(Cl)Cl): 335 nm | absorption maximum (in ClCCl): 333 nm

SMILES: CCN(CC)c1ccc(C=Cc2nc3nc4ccccc4nc3s2)cc1
absorption maximum (in CO): 490 nm

SMILES: N#Cc1c(-c2ccccc2)cc(-c2ccccc2)[nH]c1=S
absorption maximum (in C1COCCO1): 446 nm | absorption maximum (in CC#N): 434 nm | absorption maximum (in CCCCO): 441 nm | absorption maximum (in CCCO): 431 nm | absorption maximum (in CCO): 407 nm | absorption maximum (in CCOC(C)=O): 430 nm | absorption maximum (in CCOCC): 451 nm | absorption maximum (in CN(C)C=O): 439 nm

SMILES: COc1ccc(-c2nc(N)nc(C#N)c2C#N)cc1OC
absorption maximum (in C1COCCO1): 347 nm | absorption maximum (in CC#N): 359 nm | absorption maximum (in CC(C)=O): 348 nm | absorption maximum (in CCO): 350 nm | absorption maximum (in CCOC(C)=O): 356 nm | absorption maximum (in CO): 346 nm

SMILES: CC(C)[Si](C#Cc1c2ccccc2c(C#C[Si](C(C)C)(C(C)C)C(C)C)c2nc3c4ccccc4c(=O)c4ccccc4c3nc12)(C(C)C)C(C)C
absorption maximum (in ClCCl): 509 nm

SMILES: C1=Cc2nc1c(-c1ccccc1)c1ccc([nH]1)c(-c1ccccc1)c1cc(c(-c3ccccc3)c3ccc([nH]3)c2-c2ccccc2)N=C1
absorption maximum (in ClCCl): 726 nm

SMILES: COc1ccc(/C=C/C2=CC(/C=C/c3ccc(OC)cc3)=[N+]3C2=C(c2ccc(-c4ccc5ccccc5n4)s2)c2c(/C=C/c4ccc(OC)cc4)cc(/C=C/c4ccc(OC)cc4)n2[B-]3(F)F)cc1
absorption maximum (in C1COCCO1): 708 nm

SMILES: Fc1c(F)c(F)c([B-]2(c3c(F)c(F)c(F)c(F)c3F)Oc3c(ccc4c5c(ccc34)C=[N+](c3ccccc3)[B-](c3c(F)c(F)c(F)c(F)c3F)(c3c(F)c(F)c(F)c(F)c3F)O5)C=[N+]2c2ccccc2)c(F)c1F
absorption maximum (in C1CCOC1): 522 nm | absorption maximum (in CC#N): 515 nm | absorption maximum (in CC(C)=O): 515 nm | absorption maximum (in Cc1ccccc1): 531 nm | absorption maximum (in ClCCl): 533 nm

Next, values leading:

absorption maximum (in CC#N): 708 nm | absorption maximum (in CCO): 700 nm | absorption maximum (in CO): 700 nm | absorption maximum (in ClC(Cl)Cl): 716 nm
SMILES: CCN(CC)c1ccc2c(c1)OC1=C(/C=C/C3=[N+](C)c4ccccc4C3(C)C)CCCC1=C2c1ccccc1C(=O)O

absorption maximum (in C1CCCCC1): 310 nm | absorption maximum (in CC#N): 306 nm | absorption maximum (in CO): 309 nm | absorption maximum (in ClCCl): 312 nm
SMILES: C#Cc1cccc2ccccc12

absorption maximum (in C1CCOC1): 333 nm
SMILES: C1=Cc2ccccc2C(=Cc2ccc(C=C3c4ccccc4C=Cc4ccccc43)cc2)c2ccccc21

absorption maximum (in ClCCl): 402 nm
SMILES: COc1cc(OC)cc(C2=[O+][B-](F)(F)OC(c3ccc4ccccc4c3)=C2)c1

absorption maximum (in C1CCOC1): 350 nm
SMILES: CCOC(=O)c1ccc(C2=C(c3ccccc3)c3oc4ccccc4[n+]3[B-](F)(F)O2)cc1

absorption maximum (in ClC(Cl)Cl): 424 nm
SMILES: CCN(CC)c1ccc2cc(-c3cn4cc(C)ccc4n3)c(=O)oc2c1

absorption maximum (in CC#N): 479 nm | absorption maximum (in CCCCCC): 523 nm | absorption maximum (in CCOC(C)=O): 497 nm | absorption maximum (in CO): 488 nm | absorption maximum (in ClCCl): 505 nm
SMILES: F[B-]1(F)n2c(Cl)ccc2C(c2c(Cl)cccc2Cl)=C2C=CC(NCc3ccccc3)=[N+]21

absorption maximum (in CO): 584.58 nm
SMILES: c1ccc(C2CSC(c3c4ccc(=[N+]5CCCCC5)cc-4oc4cc(N5CCCCC5)ccc34)SC2)cc1 (stereo not drawn)

absorption maximum (in ClCCl): 450 nm
SMILES: COc1ccc(-c2c3ccccc3c(-c3ccc(OC)cc3)c3cc4sc(C)cc4cc23)cc1

absorption maximum (in CCO): 590 nm | absorption maximum (in O): 590 nm
SMILES: CC/[NH+]=c1\cc2oc3cc(NCCO)c4ccccc4c3nc-2cc1C

absorption maximum (in ClCCl): 499 nm
SMILES: CCN(CC)c1c2ccc(=[N+]3CCCCC3)cc-2oc2cc(N3CCCCC3)ccc12

absorption maximum (in CO): 339 nm
SMILES: N#Cc1ccc(-c2nc(-c3ccccc3)c(-c3ccccc3)[nH]2)cc1

absorption maximum (in C1CCCCC1): 336 nm
SMILES: COc1ccc(C2=C(c3ccc(OC)cc3)C(C)(C)c3c2ccc2ccccc32)cc1

absorption maximum (in ClC(Cl)Cl): 371 nm
SMILES: CN(C)c1ccc(-c2cc(-c3cccs3)nc(-c3ccccc3)n2)cc1

absorption maximum (in C1CCCCC1): 589 nm
SMILES: CCc1c(C)c2n(c1C)[B-](F)(F)[N+]1=C(C=C3c4ccccc4-c4ccccc43)C=CC1=C2C

absorption maximum (in ClCCl): 322 nm
SMILES: CCOC(=O)c1c(-c2c(Cl)c3ccccc3oc2=O)nn(-c2ccccc2)c1C(=O)OCC

absorption maximum (in C1CCCCC1): 613 nm | absorption maximum (in CCOC(C)=O): 607 nm | absorption maximum (in CO): 605.5 nm
SMILES: Cc1ccccc1C1=C2C=c3c(oc4c3ccc3ccccc34)=[N+]2[B-](F)(F)n2c1cc1c3ccc4ccccc4c3oc12
